# Source: US11542508B2, “Isolated polynucleotides and polypeptides and methods of using same for expressing an expression product of interest” (priority 2016, dated 2023)
# Legend:
# [1] = system: Bacillus subtilis BEST7003 containing Construct #2; assay: GFP reporter expression, Construct #2; assay type: cell-based; settings: Construct #2, peptide 62.5 nM-1000 nM in LB
# Protocol: (§1) Starter growths of wild type (WT) Bacillus subtilis BEST7003 strain and of Bacillus subtilis BEST7003 strains containing Construct #1 or Construct #2 were cultured in 3 ml Luria-Bertani (LB) broth until the growth curve indicated stationary phase. Following, the bacterial cells were diluted in a ratio of 1/100 in LB broth or LB broth supplemented with a SAIRGA (SEQ ID NO: 269) peptide at a concentration range of 62.5 nM-1000 nM. Optical density (O.D. at 600 nm) and GFP fluorescence levels (488 nm excitation/518 nm emission) were measured over time in a 96 wells plate using a TECAN Infinite 200 plate reader.
# AimR = AimR (Bacillus phage phi3T, UniProt P0DOE3); assay: Analytical gel filtration of purified AimR (oligomeric state); design: made in house; host or cells: E. coli BL21(DE3), pET28a; settings: AimR:SAIRGA 1:2, AimR:GMPRGA 1:1 molar ratio
# Protocol: Following, AimR was expressed in E. coli BL21(DE3) cells with a C-terminal 6× His-tag. Expression was performed at 15° C. for about ˜18 hours using 200 μM IPTG (Isopropyl β-D-1-thiogalactopyranoside) as an inducer. The cells pellet was resuspended in lysis buffer [50 mM Tris pH 8, 0.3M NaCl, 20 mM Imidazole, 2 mM DTT, 0.2 mg/ml Lysozyme, 1 μg/ml DNAse, protease inhibitor cocktail (Calbiochem)], disrupted by a cell disrupter at 4° C. and clarified at 15,000 g for 30 minutes. The clarified lysate was loaded onto a HisTrap_FF_5 ml column (GE Healthcare) and washed with buffer containing 50 mM Tris pH 8, 0.3 M NaCl, 20 mM imidazole and 2 mM DTT. AimR was eluted from the column in one step with the same buffer containing 0.5 M imidazole. Fractions containing AimR were pooled and injected to a size exclusion column (HiLoad_16/60_Superdex_200_prepgrade,GE_Healthcare) equilibrated with 20 mM Tris pH 8, 0.3 M NaCl, 2 mM TCEP. Fractions containing pure AimR were pooled and flash frozen in aliquots using liquid nitrogen.
# Pure AimR was injected to an analytical gel filtration column (Superdex_200_Increase_10/30 GL, GE Healthcare) equilibrated with buffer containing 20 mM Tris pH 8, 0.3 M NaCl, 2 mM TCEP. […]
# aimX = assay: RNA-seq / differential expression analysis during phi3T infection; assay type: cell-based; settings: medium supplemented by 1 μM peptide
# Protocol: To determine the difference in gene expression with and without the peptide, bacteria were incubated for 1 hour in LB medium supplemented with 0.1 mM MnCl2 and 5 mM MgCl2 in the presence or absence of 1 μM synthesized SAIRGA (SEQ ID NO: 269) peptide. Following, the bacteria were infected with phi3T (MOI=0.1); and cell pellets were collected at 0, 5, 10 and 20 minutes post infection.
# RNA extraction and RNA-seq was performed as described in Dar et al.^33. Briefly, pellets were lysed using the Fastprep homogenizer (MP Biomedicals, Santa Ana, Calif.) and RNA was extracted with the FastRNA PRO blue kit (MP Biomedicals, 116025050) according to manufacturer's instructions. […]
# RNA-seq libraries were sequenced using the Illumina NextSeq500 platform. Sequenced reads were demultiplexed and adapters were trimmed using fastx_clipper with default parameters. Reads were mapped to the reference genomes (gene annotation and sequences were downloaded from Genbank: NC_000964 for Bacillus subtilis str. 168, AP012496 for Bacillus subtilis BEST7003) using NovoAlign (Novocraft) V3.02.02 with default parameters. […]
# Reads per gene were calculated for each biological replicate at 20 minutes post infection with and without the synthetic peptide and normalized relative to the total mapped reads hitting the phage genome in each replicate. […]
# [2] = system: Bacillus subtilis BEST7003 containing Construct #1; assay: GFP reporter expression, Construct #1; assay type: cell-based; settings: Construct #1, peptide 62.5 nM-1000 nM in LB
# Protocol: as §1
# AimR, sequence (P0DOE3 whole entry): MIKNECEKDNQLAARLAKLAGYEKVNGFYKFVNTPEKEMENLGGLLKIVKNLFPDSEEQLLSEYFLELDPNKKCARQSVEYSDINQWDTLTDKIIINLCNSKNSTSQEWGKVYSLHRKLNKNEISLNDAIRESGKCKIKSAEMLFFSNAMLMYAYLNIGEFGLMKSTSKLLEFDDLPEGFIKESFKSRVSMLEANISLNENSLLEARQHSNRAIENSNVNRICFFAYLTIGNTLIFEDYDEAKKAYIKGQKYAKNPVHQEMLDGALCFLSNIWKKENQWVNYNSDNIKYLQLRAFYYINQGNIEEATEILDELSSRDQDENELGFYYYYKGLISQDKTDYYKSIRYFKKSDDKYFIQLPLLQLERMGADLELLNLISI
compound,measurement,setting,value
"CC[C@H](C)[C@H](NC(=O)[C@H](C)NC(=O)[C@@H](N)CO)C(=O)N[C@@H](CCCNC(=N)N)C(=O)NCC(=O)N[C@@H](C)C(=O)O [SAIRGA, Ser-Ala-Ile-Arg-Gly-Ala]",GFP expression in presence of peptide,[1],differential expression of GFP dependent on the concentration of the peptide
same,AimR oligomeric state (migration in gel filtration column),AimR,strictly migrated as a monomer
same,reduction of aimX expression,aimX,more than 20 fold
same,GFP fluorescence in presence of peptide,[2],fluorescence gradually repressed in a manner proportional to the concentration of the peptide
